Measured values reported in ChEMBL document CHEMBL1134142, “Prodrugs of 3-amido bearing pseudomycin analogues: novel antifungal agents” (Bioorg Med Chem Lett, 2001).
≈ marks a conversion by molar mass, not a printed value. Bridge positions count the residues as written; N and C are the ends. Square brackets hold non-standard residues; d marks the D form. Side chains are listed from the residue outwards. Peptide text beside a SMILES is read from it. * marks the point of attachment. Tetradecanoyl(3R-OH) = CCCCCCCCCCC[C@@H](O)CC(=O)*; Asp(3S-OH) = N[C@H](C(=O)O)[C@H](O)C(=O)O; Thr(4-Cl) = N[C@H](C(=O)O)[C@H](O)CCl; aThr = C[C@H](O)[C@H](N)C(=O)O; dDab = NCC[C@@H](N)C(=O)O; NHCH2CH2NMe2 = CN(C)CCN*; Dab = NCC[C@H](N)C(=O)O; Dhb = C/C=C(\N)C(=O)O; X1 = CCN(CC)CCN*; NHcPr = C1CC1N*

Legend:
Mus musculus [1] = assay: Compound was evaluated in vivo for its effective dose against Murine candidiasis; format: functional
Mus musculus [2] = assay: (§1) Compound was evaluated in vivo for its effective dose against cryptococosis; format: functional
Mus musculus [3] = organism: Mus musculus; assay: Maximum tolerated dose against tail vein irritation determined by dose elevation study; format: functional
[4] = The compound was tested for toxicity in tail vein irritation model; No; conditions: mouse
Aspergillus fumigatus = assay: Minimum inhibitory concentration against Aspergillus fumigatus; format: functional
Candida albicans = assay: Minimum inhibitory concentration against Candida albicans.; format: functional
[5] = The compound was tested for toxicity in tail vein irritation model; Yes; conditions: mouse
Cryptococcus neoformans [6] = assay: Minimum inhibitory concentration against Cryptococcus neoformans.
Cryptococcus neoformans [7] = assay: as §1; format: functional

Row | SMILES | ED50 (Mus musculus [1]) | ED50 (Mus musculus [2]) | Dose elevation (Mus musculus [3]) | Toxicity [4] | MIC (Aspergillus fumigatus) | MIC (Candida albicans) | Toxicity [5] | MIC (Cryptococcus neoformans [6]) | ED50 (Cryptococcus neoformans [7])
1 | C/C=C1\NC(=O)[C@H]([C@H](C)O)NC(=O)[C@H](CCN)NC(=O)[C@H](CCCCN)NC(=O)[C@H](CC(=O)NC2CC2)NC(=O)[C@@H](CCN)NC(=O)[C@@H](NC(=O)C[C@H](O)CCCCCCCCCCC)COC(=O)[C@H]([C@H](O)CCl)NC(=O)[C@H]([C@H](O)C(=O)O)NC1=O ({Tetradecanoyl(3R-OH)}-S[dDab]D(NHcPr)K[Dab][aThr][Dhb][Asp(3S-OH)][Thr(4-Cl)]; ester 1-C) | < 5 mg/kg | 2.9 mg/kg | 50 mg/kg | Not toxic | – | – | – | – | –
2 | C/C=C1\NC(=O)[C@H]([C@H](C)O)NC(=O)[C@H](CCN)NC(=O)[C@H](CCCCN)NC(=O)[C@H](CC(=O)NC(C)(C)CC)NC(=O)[C@@H](CCN)NC(=O)[C@@H](NC(=O)C[C@H](O)CCCCCCCCCCC)COC(=O)[C@H]([C@H](O)CCl)NC(=O)[C@H]([C@H](O)C(=O)O)NC1=O | – | – | – | – | > 20 µg/mL | 0.312 µg/mL (≈ 0.244 µM) | Active | < 0.01 µg/mL | –
3 | C/C=C1\NC(=O)[C@H]([C@H](C)O)NC(=O)[C@H](CCNC(=O)OCOC(=O)C(C)C)NC(=O)[C@H](CCCCNC(=O)OCOC(=O)C(C)C)NC(=O)[C@H](CC(=O)NCC(=O)OC)NC(=O)[C@@H](CCNC(=O)OCOC(=O)C(C)C)NC(=O)[C@@H](NC(=O)C[C@H](O)CCCCCCCCCCC)COC(=O)[C@H]([C@H](O)CCl)NC(=O)[C@H]([C@H](O)C(=O)O)NC1=O | < 5 mg/kg | – | 125 mg/kg | Not toxic | – | – | – | – | –
4 | C/C=C1\NC(=O)[C@H]([C@H](C)O)NC(=O)[C@H](CCNC(=O)OCOC(=O)C(C)C)NC(=O)[C@H](CCCCNC(=O)OCOC(=O)C(C)C)NC(=O)[C@H](CC(=O)NC2CC2)NC(=O)[C@@H](CCNC(=O)OCOC(=O)C(C)C)NC(=O)[C@@H](NC(=O)C[C@H](O)CCCCCCCCCCC)COC(=O)[C@H]([C@H](O)CCl)NC(=O)[C@H]([C@H](O)C(=O)O)NC1=O | < 5 mg/kg | 0.56 mg/kg | 125 mg/kg | Not toxic | – | – | – | – | –
5 | C/C=C1\NC(=O)[C@H]([C@H](C)O)NC(=O)[C@H](CCNC(=O)OCOC(=O)C(C)C)NC(=O)[C@H](CCCCNC(=O)OCOC(=O)C(C)C)NC(=O)[C@H](CC(N)=O)NC(=O)[C@@H](CCNC(=O)OCOC(=O)C(C)C)NC(=O)[C@@H](NC(=O)C[C@H](O)CCCCCCCCCCC)COC(=O)[C@H]([C@H](O)CCl)NC(=O)[C@H]([C@H](O)C(=O)O)NC1=O | – | – | – | Not toxic | 20 µg/mL (≈ 12.2 µM) | 20 µg/mL (≈ 12.2 µM) | – | 20 µg/mL (≈ 12.2 µM) | –
6 | C/C=C1\NC(=O)[C@H]([C@H](C)O)NC(=O)[C@H](CCNC(=O)OCOC(=O)C(C)(C)C)NC(=O)[C@H](CCCCNC(=O)OCOC(=O)C(C)(C)C)NC(=O)[C@H](CC(=O)NCC(=O)OC)NC(=O)[C@@H](CCNC(=O)OCOC(=O)C(C)(C)C)NC(=O)[C@@H](NC(=O)C[C@H](O)CCCCCCCCCCC)COC(=O)[C@H]([C@H](O)CCl)NC(=O)[C@H]([C@H](O)C(=O)O)NC1=O | < 5 mg/kg | > 5 mg/kg | 125 mg/kg | Not toxic | – | – | – | – | –
7 | C/C=C1\NC(=O)[C@H]([C@H](C)O)NC(=O)[C@H](CCN)NC(=O)[C@H](CCCCN)NC(=O)[C@H](CC(=O)NCC(=O)OC)NC(=O)[C@@H](CCN)NC(=O)[C@@H](NC(=O)C[C@H](O)CCCCCCCCCCC)COC(=O)[C@H]([C@H](O)CCl)NC(=O)[C@H]([C@H](O)C(=O)O)NC1=O ({Tetradecanoyl(3R-OH)}-S[dDab]D([Gly-OMe])K[Dab][aThr][Dhb][Asp(3S-OH)][Thr(4-Cl)]; ester 1-C) | < 5 mg/kg | 2.9 mg/kg | <50 mg/kg | Not toxic | – | – | – | – | –
8 | C/C=C1\NC(=O)[C@H]([C@H](C)O)NC(=O)[C@H](CCNC(=O)OCOC(=O)C(C)C)NC(=O)[C@H](CCCCNC(=O)OCOC(=O)C(C)C)NC(=O)[C@H](CC(=O)NCCN(C)C)NC(=O)[C@@H](CCNC(=O)OCOC(=O)C(C)C)NC(=O)[C@@H](NC(=O)C[C@H](O)CCCCCCCCCCC)COC(=O)[C@H]([C@H](O)CCl)NC(=O)[C@H]([C@H](O)C(=O)O)NC1=O | 6.6 mg/kg | – | 125 mg/kg | Not toxic | – | – | – | – | –
9 | C/C=C1\NC(=O)[C@H]([C@H](C)O)NC(=O)[C@H](CCNC(=O)OCOC(=O)C(C)(C)C)NC(=O)[C@H](CCCCNC(=O)OCOC(=O)C(C)(C)C)NC(=O)[C@H](CC(=O)NCCN(C)C)NC(=O)[C@@H](CCNC(=O)OCOC(=O)C(C)(C)C)NC(=O)[C@@H](NC(=O)C[C@H](O)CCCCCCCCCCC)COC(=O)[C@H]([C@H](O)CCl)NC(=O)[C@H]([C@H](O)C(=O)O)NC1=O | < 5 mg/kg | 0.44 mg/kg | – | Not toxic | – | – | – | – | –
10 | C/C=C1\NC(=O)[C@H]([C@H](C)O)NC(=O)[C@H](CCN)NC(=O)[C@H](CCCCN)NC(=O)[C@H](CC(=O)O)NC(=O)[C@@H](CCN)NC(=O)[C@@H](NC(=O)C[C@H](O)CCCCCCCCCCC)COC(=O)[C@H]([C@H](O)CCl)NC(=O)[C@H]([C@H](O)C(=O)O)NC1=O [PSEUDOMYCIN B] ({Tetradecanoyl(3R-OH)}-S[dDab]DK[Dab][aThr][Dhb][Asp(3S-OH)][Thr(4-Cl)]; ester 1-C) | – | – | 20 mg/kg | – | 20 µg/mL (≈ 16.6 µM) | 0.625 µg/mL (≈ 0.517 µM) | Active | 0.01 µg/mL (≈ 0.00828 µM) | 1.8 mg/kg
11 | C/C=C1\NC(=O)[C@H]([C@H](C)O)NC(=O)[C@H](CCNC(=O)OCOC(=O)C(C)C)NC(=O)[C@H](CCCCNC(=O)OCOC(=O)C(C)C)NC(=O)[C@H](CC(=O)NC(C)(C)CC)NC(=O)[C@@H](CCNC(=O)OCOC(=O)C(C)C)NC(=O)[C@@H](NC(=O)C[C@H](O)CCCCCCCCCCC)COC(=O)[C@H]([C@H](O)CCl)NC(=O)[C@H]([C@H](O)C(=O)O)NC1=O | – | – | – | Not toxic | 20 µg/mL (≈ 11.7 µM) | 20 µg/mL (≈ 11.7 µM) | – | 20 µg/mL (≈ 11.7 µM) | –
12 | C/C=C1\NC(=O)[C@H]([C@H](C)O)NC(=O)[C@H](CCN)NC(=O)[C@H](CCCCN)NC(=O)[C@H](CC(N)=O)NC(=O)[C@@H](CCN)NC(=O)[C@@H](NC(=O)C[C@H](O)CCCCCCCCCCC)COC(=O)[C@H]([C@H](O)CCl)NC(=O)[C@H]([C@H](O)C(=O)O)NC1=O ({Tetradecanoyl(3R-OH)}-S[dDab]NK[Dab][aThr][Dhb][Asp(3S-OH)][Thr(4-Cl)]; ester 1-C) | – | – | – | – | 10 µg/mL (≈ 8.29 µM) | 2.5 µg/mL (≈ 2.07 µM) | Active | < 0.01 µg/mL | –
13 | C/C=C1\NC(=O)[C@H]([C@H](C)O)NC(=O)[C@H](CCN)NC(=O)[C@H](CCCCN)NC(=O)[C@H](CC(=O)NCCN(C)C)NC(=O)[C@@H](CCN)NC(=O)[C@@H](NC(=O)C[C@H](O)CCCCCCCCCCC)COC(=O)[C@H]([C@H](O)CCl)NC(=O)[C@H]([C@H](O)C(=O)O)NC1=O ({Tetradecanoyl(3R-OH)}-S[dDab]D(NHCH2CH2NMe2)K[Dab][aThr][Dhb][Asp(3S-OH)][Thr(4-Cl)]; ester 1-C) | < 5 mg/kg | 2.5 mg/kg | 50 mg/kg | Not toxic | – | – | – | – | –
14 | C/C=C1\NC(=O)[C@H]([C@H](C)O)NC(=O)[C@H](CCNC(=O)OCOC(=O)C(C)(C)C)NC(=O)[C@H](CCCCNC(=O)OCOC(=O)C(C)(C)C)NC(=O)[C@H](CC(=O)NC2CC2)NC(=O)[C@@H](CCNC(=O)OCOC(=O)C(C)(C)C)NC(=O)[C@@H](NC(=O)C[C@H](O)CCCCCCCCCCC)COC(=O)[C@H]([C@H](O)CCl)NC(=O)[C@H]([C@H](O)C(=O)O)NC1=O | < 5 mg/kg | – | – | Not toxic | – | – | – | – | –
15 | C/C=C1\NC(=O)[C@H]([C@H](C)O)NC(=O)[C@H](CCNC(=O)OCOC(=O)C(C)C)NC(=O)[C@H](CCCCNC(=O)OCOC(=O)C(C)C)NC(=O)[C@H](CC(=O)NCCN(CC)CC)NC(=O)[C@@H](CCNC(=O)OCOC(=O)C(C)C)NC(=O)[C@@H](NC(=O)C[C@H](O)CCCCCCCCCCC)COC(=O)[C@H]([C@H](O)CCl)NC(=O)[C@H]([C@H](O)C(=O)O)NC1=O | – | – | – | Not toxic | 20 µg/mL (≈ 11.5 µM) | 20 µg/mL (≈ 11.5 µM) | – | 20 µg/mL (≈ 11.5 µM) | –
16 | C/C=C1\NC(=O)[C@H]([C@H](C)O)NC(=O)[C@H](CCN)NC(=O)[C@H](CCCCN)NC(=O)[C@H](CC(=O)NCCN(CC)CC)NC(=O)[C@@H](CCN)NC(=O)[C@@H](NC(=O)C[C@H](O)CCCCCCCCCCC)COC(=O)[C@H]([C@H](O)CCl)NC(=O)[C@H]([C@H](O)C(=O)O)NC1=O ({Tetradecanoyl(3R-OH)}-S[dDab]D(X1)K[Dab][aThr][Dhb][Asp(3S-OH)][Thr(4-Cl)]; ester 1-C) | – | – | – | – | 10 µg/mL (≈ 7.66 µM) | 10 µg/mL (≈ 7.66 µM) | Active | < 0.01 µg/mL | –
